Experiment [1] deals with Streptococcus sp. 'group A'. Kind of experiment: Streptococcus pyogenes SK(-)GAS viability under kanamycin – luminescence, BacTiterGlo, confirmation, counter-screen for streptokinase expression inhibitor project, dose response (AID 1900). It counts as functional, organism-based.
A further experiment addresses T1, Streptokinase A (Streptococcus pyogenes serotype M1, UniProt P10520).
T1 sequence (P10520 whole entry): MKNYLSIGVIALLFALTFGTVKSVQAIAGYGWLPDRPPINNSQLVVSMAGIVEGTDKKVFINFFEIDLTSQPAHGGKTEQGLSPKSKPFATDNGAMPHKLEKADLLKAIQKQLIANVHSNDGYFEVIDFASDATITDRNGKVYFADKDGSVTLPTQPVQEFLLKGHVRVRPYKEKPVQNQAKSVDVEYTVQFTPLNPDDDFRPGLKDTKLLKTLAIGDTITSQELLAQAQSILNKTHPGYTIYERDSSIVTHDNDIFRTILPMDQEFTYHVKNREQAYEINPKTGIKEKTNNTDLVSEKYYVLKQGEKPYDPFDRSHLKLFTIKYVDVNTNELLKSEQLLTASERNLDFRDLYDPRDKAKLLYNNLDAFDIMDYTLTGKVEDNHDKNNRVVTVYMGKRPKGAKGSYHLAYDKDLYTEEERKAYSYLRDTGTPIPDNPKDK
Kind of experiment: viability-normalized secreted streptokinase activity reduction – plasminogen activation absorbance, OD405, dose response (AID 1914).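 Note: secreted streptokinase activity via plasminogen activation per viability signal from cell pellet.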 It counts as functional, Streptococcus pyogenes M1 GAS.

Experiment [2] in a line: Trypanosoma cruzi growth suppression in host cells – NIH3T3 host cells, beta-gal luminescence, confirmation (AID 2044).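 Note: intracellular parasites grown in NIH/3T3 mouse fibroblasts as host cells; luminescent beta-galactosidase reporter signal from transgenic T. cruzi replicating inside host cells; inhibitors lower the luminescence signal.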 The class given is functional, cell-based.
Experiment [3] can be described thus: NIH3T3 cell viability loss – ATP luminescence, mouse fibroblasts, counter-screen, dose response (AID 2010).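 Note: cells exposed to compound for about 90 hours before reading.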 It counts as functional, cell-based.
In a further experiment the test system is Streptococcus. Nature of the experiment: GAS UMAA2166 growth inhibition – luminescence, BacTiterGlo, counter-screen for streptokinase expression inhibitor project, dose response (AID 1915).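 Note: potency for reduction of bacterial viability or growth.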 The class given is functional, organism-based.
The target of experiment [4] is Glucose-6-phosphate 1-dehydrogenase (Homo sapiens, UniProt P11413). Nature of the experiment: inhibition of Homo sapiens G6PD, dose series – biochemical, fluorescence, selectivity assay for P. falciparum G6PD inhibitor project, dose response (AID 504792). The class given is functional.
In a further experiment the test system is CHO. Kind of experiment: CHO cell viability loss, potency – luminescence, cytotoxicity control for TLR9-MyD88 binding inhibitor project, dose response (AID 588339).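 Note: CHO cells stably coexpressing TLR9 and MyD88 fusions from primary screen; compound exposure lasted 48 hours before viability readout.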 The class given is functional, cell-based, hamster. The following applies: Cricetulus griseus.
The target of experiment [5] is Heat shock protein HSP 90-alpha (Homo sapiens, UniProt P07900). It counts as functional, organism-based.
The target in another experiment is Beta Lactamase (Pseudomonas aeruginosa, UniProt Q932Y6). Kind of experiment: BLA reporter interference, concentration series – BLA reporter cells, FRET fluorescence, artefact control for TLR9-MyD88 binding inhibitor project, dose response (AID 588341).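 Note: cell based assay in CHO-K1 cells stably expressing beta-lactamase.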 It counts as cell-based.
The target of another experiment is Melanocortin receptor 4 (Homo sapiens, UniProt P32245). Nature of the experiment: inhibitors of MC4R cAMP signaling – cell-based, TR-FRET, biased antagonists, dose response (AID 602298).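 Note: antagonist potency against agonist-stimulated cAMP production.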 The class given is functional.
The nature of experiment [6]: cAMP pathway inhibition in counterscreen cell line – TR-FRET cAMP detection, counter-screen for MC4R biased antagonist project, dose response (AID 602305).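 Note: U2OS cells stimulated with forskolin near its EC80 as the cAMP inducer; potency is for inhibition of forskolin-stimulated cAMP signaling.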 It counts as functional, cell-based.
Experiment [7] has as its target Dual specificity protein kinase CLK2 (Homo sapiens, UniProt P49760). It counts as functional.
Experiment [8] has as its target Tyrosine-protein kinase JAK2 (Homo sapiens, UniProt O60674). The class given is functional.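 Note: JAK2 tested as one member of a kinase panel.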
Experiment [9] deals with Serine/threonine-protein kinase TBK1 (Homo sapiens, UniProt Q9UHD2). Nature of the experiment: Navigating the Kinome. Panel member name: TBK1. It counts as functional.
Experiment [10] deals with Proto-oncogene tyrosine-protein kinase receptor Ret (Homo sapiens, UniProt P07949). The class given is functional.
The target of experiment [11] is Tyrosine-protein kinase receptor TYRO3 (Homo sapiens, UniProt Q06418). It counts as functional.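 Note: TYRO3 value obtained as one member of a kinome-wide profiling panel.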
Experiment [12] has as its target Serine/threonine-protein kinase D3 (Homo sapiens, UniProt O94806). The class given is functional.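 Note: determined within a kinase panel screen, with PRKCN as the panel member.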
For experiment [13], the target named is Death-associated protein kinase 3 (Homo sapiens, UniProt O43293). The class given is functional.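 Note: measured as one member of a kinome-wide profiling panel.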
The target in a further experiment is Aurora kinase A (Homo sapiens, UniProt O14965). The class given is functional.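 Note: value from the Navigating the Kinome kinase panel profiling, panel entry STK6.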
Experiment [14] addresses Serine/threonine-protein kinase PAK 4 (Homo sapiens, UniProt O96013). It counts as functional.
Experiment [15] has as its target Fibroblast growth factor receptor 1 (Homo sapiens, UniProt P11362). It counts as functional.
Experiment [16] addresses Casein kinase I isoform alpha (Homo sapiens, UniProt P48729). The class given is functional.
Experiment [17] concerns the target Serine/threonine-protein kinase TAO1 (Homo sapiens, UniProt Q7L7X3). The class given is functional.
In experiment [18] the target is Glycogen synthase kinase-3 alpha (Homo sapiens, UniProt P49840). It counts as functional.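 Note: GSK3A result taken from a broad kinome-wide kinase panel.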
Experiment [19] has as its target Mitogen-activated protein kinase kinase kinase kinase 2 (Homo sapiens, UniProt Q12851). It counts as functional.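 Note: measured as one member of a kinome-wide kinase panel, with MAP4K2 as the panel entry.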
Experiment [20] concerns the target Platelet-derived growth factor receptor beta (Homo sapiens, UniProt P09619). It counts as functional.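 Note: value comes from a kinome panel, with PDGFRB tested as one panel member.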
For experiment [21], the target named is Vascular endothelial growth factor receptor 2 (Homo sapiens, UniProt P35968). It counts as functional.
In experiment [22] the target is Cyclin-dependent kinase 5 (Homo sapiens, UniProt Q00535). The class given is functional.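 Note: CDK5 measured as one member of a kinase profiling panel.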
The target of experiment [23] is Dual specificity tyrosine-phosphorylation-regulated kinase 1B (Homo sapiens, UniProt Q9Y463). Nature of the experiment: Navigating the Kinome. Panel member name: DYRK1B. The class given is functional.
For experiment [24], the target named is cAMP-dependent protein kinase catalytic subunit PRKX (Homo sapiens, UniProt P51817). It counts as functional.
For experiment [25], the target named is Platelet-derived growth factor receptor alpha (Homo sapiens, UniProt P16234). Nature of the experiment: Navigating the Kinome. Panel member name: PDGFRA. It counts as functional.
The target in experiment [26] is Leucine-rich repeat serine/threonine-protein kinase 2 (Homo sapiens, UniProt Q5S007). It counts as functional.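 Note: value from a broad kinome-wide panel profiling study in which LRRK2 was one of the kinases tested.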
The target in experiment [27] is Cyclin-dependent kinase 7 (Homo sapiens, UniProt P50613). The class given is functional.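 Note: value comes from a kinome-wide kinase profiling panel in which CDK7 is one member.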
Experiment [28] concerns the target Vascular endothelial growth factor receptor 1 (Homo sapiens, UniProt P17948). The class given is functional.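 Note: measured within a kinome-wide profiling panel, FLT1 as the panel member.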
Experiment [29] has as its target Glycogen synthase kinase-3 beta (Homo sapiens, UniProt P49841). It counts as functional.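 Note: value comes from a broad kinome profiling panel, with GSK3B as the panel member.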
Experiment [30] has as its target Cyclin-dependent kinase 9 (Homo sapiens, UniProt P50750). The class given is functional.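 Note: value from the CDK9 entry of a kinome-spanning kinase panel.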
The target in experiment [31] is cAMP-dependent protein kinase catalytic subunit alpha (Homo sapiens, UniProt P17612). It counts as functional.
Experiment [32] addresses Dual specificity protein kinase CLK4 (Homo sapiens, UniProt Q9HAZ1). It counts as functional.
In experiment [33] the target is Mitogen-activated protein kinase kinase kinase kinase 4 (Homo sapiens, UniProt O95819). It counts as functional.
Experiment [34] concerns the target Macrophage colony-stimulating factor 1 receptor (Homo sapiens, UniProt P07333). It counts as functional.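 Note: value comes from the Navigating the Kinome screening panel, CSF1R member.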
Experiment [35] deals with Dual specificity tyrosine-phosphorylation-regulated kinase 1A (Homo sapiens, UniProt Q13627). It counts as functional.
The target in experiment [36] is Inhibitor of nuclear factor kappa-B kinase subunit epsilon (Homo sapiens, UniProt Q14164). Nature of the experiment: Navigating the Kinome. Panel member name: IKBKE. It counts as functional.
Experiment [37] concerns the target Leukocyte tyrosine kinase receptor (Homo sapiens, UniProt P29376). Nature of the experiment: Navigating the Kinome. Panel member name: LTK. The class given is functional.
The target of experiment [38] is Melanin-concentrating hormone receptor 1 (Homo sapiens, UniProt Q99705). Nature of the experiment: Late-stage fluorescence-based counterscreen for antagonists of the G-protein coupled receptor 7 (GPR7): cell-based dose response assay to identify antagonists of the melanin-concentrating hormone receptor 1 (MCHR1) Set 6. It counts as functional.
Experiment [39] addresses T2, Neuropeptides B/W receptor type 1 (Homo sapiens, UniProt P48145).
T2 sequence (P48145 whole entry): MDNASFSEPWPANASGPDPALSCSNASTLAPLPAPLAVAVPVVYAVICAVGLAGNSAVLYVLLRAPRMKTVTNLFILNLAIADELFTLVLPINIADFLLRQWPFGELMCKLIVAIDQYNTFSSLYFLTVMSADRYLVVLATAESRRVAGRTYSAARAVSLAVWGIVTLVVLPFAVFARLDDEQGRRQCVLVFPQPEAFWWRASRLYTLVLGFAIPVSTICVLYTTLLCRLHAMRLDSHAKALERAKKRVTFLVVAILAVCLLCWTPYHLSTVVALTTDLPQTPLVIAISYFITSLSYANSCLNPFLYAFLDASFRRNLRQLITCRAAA
Kind of experiment: human NPBW1 receptor blockade, IC50 – cell-based, fluorescence, dose response, set 6, late-stage follow-up (AID 588583). It counts as functional.

Active and inactive are the calls of the source. Bounds are passed on as bounds.

Serine/threonine-protein kinase TAO1, sequence (Q7L7X3 whole entry): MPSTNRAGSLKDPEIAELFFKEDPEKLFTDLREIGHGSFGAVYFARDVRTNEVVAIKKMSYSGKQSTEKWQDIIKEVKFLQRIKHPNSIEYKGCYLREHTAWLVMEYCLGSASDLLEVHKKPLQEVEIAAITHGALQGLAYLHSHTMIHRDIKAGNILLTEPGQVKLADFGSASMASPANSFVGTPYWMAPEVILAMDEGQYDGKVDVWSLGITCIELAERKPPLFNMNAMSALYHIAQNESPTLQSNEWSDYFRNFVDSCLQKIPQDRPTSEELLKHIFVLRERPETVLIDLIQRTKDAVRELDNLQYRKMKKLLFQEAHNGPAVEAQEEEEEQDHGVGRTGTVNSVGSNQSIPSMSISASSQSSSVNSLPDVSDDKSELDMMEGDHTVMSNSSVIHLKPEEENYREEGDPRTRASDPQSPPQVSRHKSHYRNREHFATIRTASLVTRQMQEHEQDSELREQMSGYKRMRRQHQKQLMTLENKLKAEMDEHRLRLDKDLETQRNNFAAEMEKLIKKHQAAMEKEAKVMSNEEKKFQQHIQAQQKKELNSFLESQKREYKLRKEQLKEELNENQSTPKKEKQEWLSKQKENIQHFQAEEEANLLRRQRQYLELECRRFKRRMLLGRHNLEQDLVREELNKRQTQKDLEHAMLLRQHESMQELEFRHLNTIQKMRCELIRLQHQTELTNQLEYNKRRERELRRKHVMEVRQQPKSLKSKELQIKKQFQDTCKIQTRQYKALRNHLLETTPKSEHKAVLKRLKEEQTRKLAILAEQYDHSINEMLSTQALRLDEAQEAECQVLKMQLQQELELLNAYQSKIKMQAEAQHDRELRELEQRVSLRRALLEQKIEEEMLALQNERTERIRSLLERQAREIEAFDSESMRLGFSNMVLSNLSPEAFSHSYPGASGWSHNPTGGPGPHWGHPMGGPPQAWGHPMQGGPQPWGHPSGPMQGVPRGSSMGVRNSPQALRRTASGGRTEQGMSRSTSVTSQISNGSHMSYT
Tyrosine-protein kinase JAK2, sequence (O60674 whole entry): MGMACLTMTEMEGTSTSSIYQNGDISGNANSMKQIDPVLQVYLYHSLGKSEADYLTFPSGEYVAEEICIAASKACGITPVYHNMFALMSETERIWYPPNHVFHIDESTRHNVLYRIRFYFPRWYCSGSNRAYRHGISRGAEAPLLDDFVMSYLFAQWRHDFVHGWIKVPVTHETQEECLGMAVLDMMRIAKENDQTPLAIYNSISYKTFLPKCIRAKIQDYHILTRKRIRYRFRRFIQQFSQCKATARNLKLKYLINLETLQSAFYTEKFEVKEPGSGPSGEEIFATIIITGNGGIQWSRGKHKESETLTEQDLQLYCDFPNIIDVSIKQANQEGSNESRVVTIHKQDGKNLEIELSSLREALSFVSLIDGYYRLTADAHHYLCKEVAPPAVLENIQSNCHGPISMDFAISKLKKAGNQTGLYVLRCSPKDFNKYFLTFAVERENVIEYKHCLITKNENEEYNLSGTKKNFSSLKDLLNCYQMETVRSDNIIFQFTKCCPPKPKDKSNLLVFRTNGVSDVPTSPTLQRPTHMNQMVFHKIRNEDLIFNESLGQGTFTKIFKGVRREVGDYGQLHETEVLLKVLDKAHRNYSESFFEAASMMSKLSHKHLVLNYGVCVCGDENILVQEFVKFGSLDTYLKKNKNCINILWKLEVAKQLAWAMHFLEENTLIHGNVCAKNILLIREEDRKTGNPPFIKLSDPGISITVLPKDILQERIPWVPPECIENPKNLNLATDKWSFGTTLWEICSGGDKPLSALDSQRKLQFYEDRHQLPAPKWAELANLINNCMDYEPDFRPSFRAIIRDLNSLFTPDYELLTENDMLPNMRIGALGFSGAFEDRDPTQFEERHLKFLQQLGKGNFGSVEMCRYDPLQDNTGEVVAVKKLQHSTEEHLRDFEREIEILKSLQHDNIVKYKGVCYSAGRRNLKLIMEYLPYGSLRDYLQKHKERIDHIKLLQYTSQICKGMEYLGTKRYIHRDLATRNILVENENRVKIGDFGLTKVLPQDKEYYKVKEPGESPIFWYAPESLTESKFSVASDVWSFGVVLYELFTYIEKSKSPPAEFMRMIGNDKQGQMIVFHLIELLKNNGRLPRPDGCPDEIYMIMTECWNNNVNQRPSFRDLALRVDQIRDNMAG
Macrophage colony-stimulating factor 1 receptor, sequence (P07333 whole entry): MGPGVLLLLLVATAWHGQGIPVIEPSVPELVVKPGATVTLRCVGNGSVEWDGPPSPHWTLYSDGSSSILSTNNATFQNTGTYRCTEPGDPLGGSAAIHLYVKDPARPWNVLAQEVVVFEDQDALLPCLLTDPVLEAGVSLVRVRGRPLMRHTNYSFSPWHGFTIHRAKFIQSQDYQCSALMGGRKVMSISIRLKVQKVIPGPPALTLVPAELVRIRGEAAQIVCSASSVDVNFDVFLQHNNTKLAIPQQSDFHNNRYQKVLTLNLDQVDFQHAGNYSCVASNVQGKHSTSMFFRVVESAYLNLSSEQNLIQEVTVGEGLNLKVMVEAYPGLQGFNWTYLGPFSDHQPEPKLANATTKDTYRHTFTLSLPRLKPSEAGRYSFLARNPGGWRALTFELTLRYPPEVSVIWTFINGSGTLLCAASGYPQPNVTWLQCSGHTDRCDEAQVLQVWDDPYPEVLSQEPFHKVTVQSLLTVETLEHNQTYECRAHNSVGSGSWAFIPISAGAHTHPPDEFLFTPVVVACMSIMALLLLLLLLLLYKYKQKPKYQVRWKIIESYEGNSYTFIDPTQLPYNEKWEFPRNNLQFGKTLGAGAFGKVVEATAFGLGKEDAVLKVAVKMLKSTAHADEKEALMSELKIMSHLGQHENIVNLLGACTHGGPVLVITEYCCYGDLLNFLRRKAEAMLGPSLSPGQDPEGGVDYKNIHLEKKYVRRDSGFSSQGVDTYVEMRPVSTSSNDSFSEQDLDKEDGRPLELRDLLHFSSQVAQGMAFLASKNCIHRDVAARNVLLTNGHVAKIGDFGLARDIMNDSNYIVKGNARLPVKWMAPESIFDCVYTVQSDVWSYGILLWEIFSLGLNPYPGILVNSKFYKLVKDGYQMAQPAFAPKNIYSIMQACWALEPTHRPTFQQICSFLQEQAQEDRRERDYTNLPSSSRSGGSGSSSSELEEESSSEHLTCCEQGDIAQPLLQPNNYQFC
Serine/threonine-protein kinase D3, sequence (O94806 whole entry): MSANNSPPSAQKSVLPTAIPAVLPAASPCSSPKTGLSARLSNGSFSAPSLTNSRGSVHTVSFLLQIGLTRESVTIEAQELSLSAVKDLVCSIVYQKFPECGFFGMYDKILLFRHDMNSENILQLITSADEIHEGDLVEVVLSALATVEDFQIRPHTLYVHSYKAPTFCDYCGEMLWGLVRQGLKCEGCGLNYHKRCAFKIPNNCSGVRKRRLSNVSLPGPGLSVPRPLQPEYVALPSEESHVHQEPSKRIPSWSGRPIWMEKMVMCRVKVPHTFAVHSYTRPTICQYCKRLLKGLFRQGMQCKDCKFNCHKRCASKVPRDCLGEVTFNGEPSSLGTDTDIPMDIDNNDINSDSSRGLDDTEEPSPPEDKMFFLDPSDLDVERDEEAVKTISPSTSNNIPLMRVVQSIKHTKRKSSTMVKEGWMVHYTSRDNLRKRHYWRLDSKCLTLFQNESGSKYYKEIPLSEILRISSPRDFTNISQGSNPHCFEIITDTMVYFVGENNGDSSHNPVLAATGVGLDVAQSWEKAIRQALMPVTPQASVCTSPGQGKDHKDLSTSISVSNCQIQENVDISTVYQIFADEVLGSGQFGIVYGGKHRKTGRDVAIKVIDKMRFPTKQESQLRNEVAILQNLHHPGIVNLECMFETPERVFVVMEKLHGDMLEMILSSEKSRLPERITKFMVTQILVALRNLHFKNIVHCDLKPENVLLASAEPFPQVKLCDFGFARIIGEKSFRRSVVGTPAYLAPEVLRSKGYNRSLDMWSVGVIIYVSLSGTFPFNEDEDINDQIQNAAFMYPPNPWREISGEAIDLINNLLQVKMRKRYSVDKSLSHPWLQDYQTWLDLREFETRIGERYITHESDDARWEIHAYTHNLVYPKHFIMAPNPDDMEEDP
Platelet-derived growth factor receptor beta, sequence (P09619 whole entry): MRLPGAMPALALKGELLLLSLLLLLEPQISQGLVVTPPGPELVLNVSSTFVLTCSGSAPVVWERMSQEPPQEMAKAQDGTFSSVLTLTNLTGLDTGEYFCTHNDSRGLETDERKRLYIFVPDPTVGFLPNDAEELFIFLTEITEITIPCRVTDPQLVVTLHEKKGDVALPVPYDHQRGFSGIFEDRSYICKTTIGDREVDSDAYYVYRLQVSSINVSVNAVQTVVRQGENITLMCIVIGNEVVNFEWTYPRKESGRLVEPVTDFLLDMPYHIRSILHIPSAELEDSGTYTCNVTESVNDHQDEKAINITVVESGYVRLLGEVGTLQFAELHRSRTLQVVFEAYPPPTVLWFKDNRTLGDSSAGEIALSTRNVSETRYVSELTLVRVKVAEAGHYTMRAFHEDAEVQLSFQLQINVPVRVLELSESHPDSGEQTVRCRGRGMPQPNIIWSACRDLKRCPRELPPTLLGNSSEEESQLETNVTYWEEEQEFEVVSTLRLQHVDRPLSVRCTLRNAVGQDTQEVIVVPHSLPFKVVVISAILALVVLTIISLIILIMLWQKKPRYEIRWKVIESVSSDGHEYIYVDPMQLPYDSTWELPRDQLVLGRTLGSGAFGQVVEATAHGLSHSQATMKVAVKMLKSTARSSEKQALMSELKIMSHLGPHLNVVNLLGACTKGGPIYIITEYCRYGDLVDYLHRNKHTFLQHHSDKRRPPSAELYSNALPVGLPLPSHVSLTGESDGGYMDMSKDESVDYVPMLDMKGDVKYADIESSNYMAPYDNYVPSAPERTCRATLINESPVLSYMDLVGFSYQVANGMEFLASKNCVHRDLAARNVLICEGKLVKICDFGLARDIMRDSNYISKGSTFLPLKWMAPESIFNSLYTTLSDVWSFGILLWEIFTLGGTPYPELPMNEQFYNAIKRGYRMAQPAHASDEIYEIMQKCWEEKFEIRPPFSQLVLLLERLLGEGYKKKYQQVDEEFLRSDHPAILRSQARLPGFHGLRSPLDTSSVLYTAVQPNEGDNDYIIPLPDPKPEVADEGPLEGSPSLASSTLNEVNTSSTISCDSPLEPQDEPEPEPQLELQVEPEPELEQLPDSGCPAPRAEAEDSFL

For `Cc1ccc(NC(=O)c2cc(N3C(=O)C=CC3=O)ccc2N2CCOCC2)cc1Cl`, the EC50 was 12 µM (active) in experiment [1]; 6.68 µM (active) at Streptokinase A; 2.01 µM (active) in experiment [2]; 6.37 µM (active) in experiment [3]; 13.4 µM (active) in the experiment on Streptococcus. The IC50 is 48.1 µM (inactive) in experiment [4]; 1.7 µM (active) with CHO; 9.48 µM (active) at Beta Lactamase; 8.43 µM (active) on Melanocortin receptor 4; 28.6 µM (inactive) in [6]. Besides, the AC50 in [5] is < 0.195 µM (active).

Take `CC(=O)c1ccccc1-c1ncnc2[nH]ccc12`: the Ki in experiment [7] was 20 µM (active); in [8], 50.1 µM (active); in experiment [9], 63.1 µM (active); in experiment [10], 39.8 µM (active); in [11], 63.1 µM (active); in [12], 39.8 µM (active). The Ki in [13] is 63.1 µM (active); on Aurora kinase A, > 63.1 µM (inactive); in experiment [14], 50.1 µM (active); in [15], 63.1 µM (active); in [16] it was 50.1 µM (active); in experiment [17], 39.8 µM (active). For the same molecule, the Ki in experiment [18] was 63.1 µM (active); in [19], 25.1 µM (active); in experiment [20], 31.6 µM (active); in experiment [21] it was 15.8 µM (active); in [22], 50.1 µM (active); in [23], 20 µM (active). Moreover, the Ki in experiment [24] was 39.8 µM (active); in experiment [25], 31.6 µM (active); in [26] it was 12.6 µM (active); in [27], 63.1 µM (active); in [28], 39.8 µM (active); in experiment [29], 63.1 µM (active). The Ki in experiment [30] is 50.1 µM (active); in experiment [31], 15.8 µM (active); in [32], 2.51 µM (active); in experiment [33], 50.1 µM (active); in experiment [34] it was 63.1 µM (active); in experiment [35], 20 µM (active). The Ki was 100 µM (active) in experiment [36] and 39.8 µM (active) in [37].

`O=c1c(-c2cccc(F)c2)c(Br)cnn1Cc1cccc2ccccc12`: the IC50 in experiment [38] and in experiment [39] was 0.533 µM (active) throughout.

These data come from ChEMBL document CHEMBL1201862, “PubChem BioAssay data set” (2004).
